Source: the supplement of paper PMC4862054

Assays:
[1] = system: CAL-51; details: 72 h
Procedure, shortened: (§1)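 Viability of breast cancer cell lines was measured with CellTiter-Blue after 72 h of incubation on compound-loaded 384-well plates. Cells were seeded in 20 µl onto compound dissolved in 5 µl medium, and 2.5 µl reagent was added for 2 h at 37 °C before reading at 560/590 nm. EC50 was fitted from percent-inhibition dose-response data censored at the highest concentration, normalised per plate to vehicle and a positive kill control, with zero drug sensitivity score rows dropped.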

[2] = system: CAL-148; details: 72 h
Procedure, shortened: as §1

[3] = system: CAL-85-1; test: normalised viability (% of control), CellTiter-Blue; higher = more viable cells (about 100 = DMSO control); details: incubation time: 72 h
Procedure, shortened: (§2)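 After 72 h on compound-loaded 384-well plates, breast cancer cell lines received 2.5 µl CellTiter-Blue reagent for 2 h at 37 °C. Fluorescence at 560/590 nm was scaled per plate so that vehicle was 100 and a positive kill control was 0. The value stands for normalised viability at a single listed concentration of the series.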

[4] = system: MDA-MB-436; test: as above; details: incubation time: 72 h
Procedure, shortened: as §2

[5] = system: HDQ-P1; test: as above; details: incubation time: 72 h
Procedure, shortened: as §2

[6] = system: DU-4475; test: as above; details: incubation time: 72 h
Procedure, shortened: as §2

[7] = system: MDA-MB-453; test: as above; details: incubation time: 72 h
Procedure, shortened: as §2

[8] = system: Hs578T; test: as above; details: incubation time: 72 h
Procedure, shortened: as §2

[9] = system: MFM-223; test: as above; details: incubation time: 72 h
Procedure, shortened: as §2

[10] = system: BT-549; test: as above; details: incubation time: 72 h
Procedure, shortened: as §2

[11] = system: CAL-51; test: as above; details: incubation time: 72 h
Procedure, shortened: as §2

[12] = system: BT-474; test: as above; details: incubation time: 72 h
Procedure, shortened: as §2

[13] = system: HCC1937; test: as above; details: incubation time: 72 h
Procedure, shortened: as §2

[14] = system: MDA-MB-231; test: as above; details: incubation time: 72 h
Procedure, shortened: as §2

[15] = system: HCC1143; test: as above; details: incubation time: 72 h
Procedure, shortened: as §2

[16] = system: MDA-MB-468; test: as above; details: incubation time: 72 h
Procedure, shortened: as §2

[17] = system: CAL-148; test: as above; details: incubation time: 72 h
Procedure, shortened: as §2

[18] = system: CAL-85-1; test: normalised response (% of control), CellTiter-Glo; higher = more viable cells (100 = DMSO, 0 = benzethonium chloride kill control); details: incubation time: 72 h
Procedure, shortened: (§3)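 For each plate, 0.1 % DMSO was set to 100 and a positive kill control to 0. Breast cancer cell lines (20 µl suspension) were seeded into 384-well plates already holding compound at 5 concentrations in 10-fold steps over a 10,000-fold range chosen per compound, and incubated for 72 h. CellTox Green fluorescence at 485/520 nm was read before CellTiter-Glo luminescence, which followed 10 min at room temperature. Each value is the normalised signal at one concentration.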

[19] = system: MDA-MB-436; test: as above; details: incubation time: 72 h
Procedure, shortened: as §3

[20] = system: DU-4475; test: as above; details: incubation time: 72 h
Procedure, shortened: as §3

[21] = system: SK-BR-3; test: as above; details: incubation time: 72 h
Procedure, shortened: as §3

[22] = system: BT-474; test: as above; details: incubation time: 72 h
Procedure, shortened: as §3

[23] = system: MDA-MB-468; test: as above; details: incubation time: 72 h
Procedure, shortened: as §3

[24] = system: CAL-148; test: as above; details: incubation time: 72 h
Procedure, shortened: as §3

Nc1nc(Cl)nc2c1ncn2[C@H]1C[C@H](O)[C@@H](CO)O1 [Cladribine]
EC50, CellTiter-Blue viability [1]: > 1 µM | EC50, CellTiter-Blue viability [2]: > 1000 nM | normalised viability ([3]; 0.3 nM): 102% | normalised viability ([3]; 3 nM): 101% | normalised viability ([3]; 10 nM): 105% | normalised viability ([4]; 1 nM): 101% | normalised viability ([4]; 100 nM): 90% | normalised viability ([4]; 1000 nM): 65.8% | normalised viability ([5]; 0.3 nM): 113% | normalised viability ([5]; 3 nM): 101% | normalised viability ([5]; 10 nM): 109% | normalised viability ([6]; 0.3 nM): 106% | normalised viability ([6]; 3 nM): 104% | normalised viability ([6]; 10 nM): 102% | normalised viability ([7]; 0.3 nM): 126% | normalised viability ([7]; 3 nM): 97.4% | normalised viability ([7]; 10 nM): 89.7% | normalised viability ([8]; 1 nM): 111% | normalised viability ([8]; 100 nM): 104% | normalised viability ([8]; 1000 nM): 105% | normalised viability ([9]; 1 nM): 86.2% | normalised viability ([9]; 100 nM): 86.7% | normalised viability ([9]; 1000 nM): 90% | normalised viability ([10]; 1 nM): 82.5% | normalised viability ([10]; 100 nM): 86.4% | normalised viability ([10]; 1000 nM): 45.8% | normalised viability ([11]; 0.3 nM): 119% | normalised viability ([11]; 3 nM): 116% | normalised viability ([11]; 10 nM): 114% | normalised viability ([12]; 1 nM): 112% | normalised viability ([12]; 100 nM): 102% | normalised viability ([12]; 1000 nM): 103% | normalised viability ([13]; 1 nM): 91.8% | normalised viability ([13]; 100 nM): 56.8% | normalised viability ([13]; 1000 nM): 43.4% | normalised viability ([14]; 1 nM): 101% | normalised viability ([14]; 100 nM): 67% | normalised viability ([14]; 1000 nM): 71.9% | normalised viability ([15]; 1 nM): 91.9% | normalised viability ([15]; 100 nM): 87.6% | normalised viability ([15]; 1000 nM): 72.2% | normalised viability ([16]; 1 nM): 99.6% | normalised viability ([16]; 100 nM): 94.4% | normalised viability ([16]; 1000 nM): 82.8% | normalised viability ([17]; 0.3 nM): 91.9% | normalised viability ([17]; 3 nM): 109% | normalised viability ([17]; 10 nM): 93%

S=c1[nH]cnc2nc[nH]c12 [Mercaptopurine]
EC50, CellTiter-Blue viability [1]: 3.81 µM | normalised viability ([3]; 3 nM): 101% | normalised viability ([3]; 30 nM): 91.8% | normalised viability ([3]; 100 nM): 103% | normalised viability ([4]; 10 nM): 89.8% | normalised viability ([4]; 1000 nM): 74.1% | normalised viability ([4]; 10000 nM): 83% | normalised viability ([5]; 3 nM): 123% | normalised viability ([5]; 30 nM): 110% | normalised viability ([5]; 100 nM): 100% | normalised viability ([6]; 3 nM): 103% | normalised viability ([6]; 30 nM): 87.6% | normalised viability ([6]; 100 nM): 87.8% | normalised viability ([7]; 3 nM): 116% | normalised viability ([7]; 30 nM): 98.1% | normalised viability ([7]; 100 nM): 110% | normalised viability ([8]; 10 nM): 118% | normalised viability ([8]; 1000 nM): 123% | normalised viability ([8]; 10000 nM): 86.7% | normalised viability ([9]; 10 nM): 101% | normalised viability ([9]; 1000 nM): 94% | normalised viability ([9]; 10000 nM): 103% | normalised viability ([10]; 10 nM): 115% | normalised viability ([10]; 1000 nM): 105% | normalised viability ([10]; 10000 nM): 95.6% | normalised viability ([11]; 3 nM): 105% | normalised viability ([11]; 30 nM): 101% | normalised viability ([11]; 100 nM): 106% | normalised viability ([12]; 10 nM): 116% | normalised viability ([12]; 1000 nM): 108% | normalised viability ([12]; 10000 nM): 112% | normalised viability ([13]; 10 nM): 87.5% | normalised viability ([13]; 1000 nM): 86.9% | normalised viability ([13]; 10000 nM): 48.1% | normalised viability ([14]; 10 nM): 101% | normalised viability ([14]; 1000 nM): 95.9% | normalised viability ([14]; 10000 nM): 88.7% | normalised viability ([15]; 10 nM): 85.8% | normalised viability ([15]; 1000 nM): 95.7% | normalised viability ([15]; 10000 nM): 88.5% | normalised viability ([16]; 10 nM): 108% | normalised viability ([16]; 1000 nM): 64.9% | normalised viability ([16]; 10000 nM): 69% | normalised viability ([17]; 3 nM): 99.5% | normalised viability ([17]; 30 nM): 98.7% | normalised viability ([17]; 100 nM): 92.8%

S=c1[nH]cnc2nc[nH]c12 [Mercaptopurine] (10000 nM)
normalised response [18]: 79.3% | normalised response [19]: 85.8% | normalised response [20]: 56.5% | normalised response [21]: 85.8% | normalised response [22]: 31.6% | normalised response [23]: 96.8% | normalised response [24]: 85.5%

Clc1ccc(C(c2ccccc2Cl)C(Cl)Cl)cc1 (stereo not given) [Mitotane] (10000 nM)
normalised response [18]: 97% | normalised response [19]: 97.4% | normalised response [20]: 95.9% | normalised response [21]: 98.7% | normalised response [22]: 88.2% | normalised response [23]: 96.2% | normalised response [24]: 99.1%

COc1cccc2cc(-c3nc([C@H]4CC[C@H](C(=O)O)CC4)n4ncnc(N)c34)[nH]c12 [OSI-027] (10000 nM)
normalised response [18]: 30.1% | normalised response [19]: 45.6% | normalised response [20]: 61.2% | normalised response [21]: 22.9% | normalised response [22]: 51.8% | normalised response [23]: 33.4% | normalised response [24]: 39.2%

OC[C@H]1O[C@@H](n2cnc3c2N=CNC[C@H]3O)C[C@@H]1O [Pentostatin] (10000 nM)
normalised response [18]: 99.2% | normalised response [19]: 96.8% | normalised response [20]: 99.8% | normalised response [21]: 104% | normalised response [22]: 88.9% | normalised response [23]: 103% | normalised response [24]: 105%

N#CC[C@H](C1CCCC1)n1cc(-c2ncnc3[nH]ccc23)cn1 [Ruxolitinib] (10000 nM)
normalised response [18]: 98.5% | normalised response [19]: 88.4% | normalised response [20]: 98.4% | normalised response [21]: 91.5% | normalised response [22]: 81.8% | normalised response [23]: 88.7% | normalised response [24]: 98.2%

C=CC[C@@H]1/C=C(\C)C[C@H](C)C[C@H](OC)[C@H]2O[C@@](O)(C(=O)C(=O)N3CCCC[C@H]3C(=O)O[C@H](/C(C)=C/[C@@H]3CC[C@@H](O)[C@H](OC)C3)[C@H](C)[C@@H](O)CC1=O)[C@H](C)C[C@@H]2OC [Tacrolimus] (10000 nM)
normalised response [18]: 99.6% | normalised response [19]: 98% | normalised response [20]: 103% | normalised response [21]: 89.3% | normalised response [22]: 88.5% | normalised response [23]: 85.4% | normalised response [24]: 103%

C=CCNC1=C2C[C@@H](C)C[C@H](OC)[C@H](O)[C@@H](C)/C=C(\C)[C@H](OC(N)=O)[C@@H](OC)/C=C\C=C(/C)C(=O)NC(=CC1=O)C2=O [Tanespimycin] (10000 nM)
normalised response [18]: 21.2% | normalised response [19]: 41.8% | normalised response [20]: -0.09% | normalised response [21]: 37.1% | normalised response [22]: 22.3% | normalised response [23]: 25.5% | normalised response [24]: 25%

CO[C@H]1C[C@@H]2CC[C@@H](C)[C@@](O)(O2)C(=O)C(=O)N2CCCC[C@H]2C(=O)O[C@H]([C@H](C)C[C@@H]2CC[C@@H](OC(=O)C(C)(CO)CO)[C@H](OC)C2)CC(=O)[C@H](C)/C=C(\C)[C@@H](O)[C@@H](OC)C(=O)[C@H](C)C[C@H](C)/C=C/C=C/C=C/1C [Temsirolimus] (100 nM)
normalised response [18]: 60.5% | normalised response [19]: 83% | normalised response [20]: 73.6% | normalised response [21]: 53% | normalised response [22]: 84.3% | normalised response [23]: 56.9% | normalised response [24]: 58.1%

C[C@]1(c2nc3c(C(N)=O)cccc3[nH]2)CCCN1 [Veliparib] (10000 nM)
normalised response [18]: 104% | normalised response [19]: 94.5% | normalised response [20]: 96.8% | normalised response [21]: 90.9% | normalised response [22]: 82.1% | normalised response [23]: 75.5% | normalised response [24]: 99.2%

CC[C@]1(O)C[C@@H]2CN(CCc3c([nH]c4ccccc34)[C@@](C(=O)OC)(c3cc4c(cc3OC)N(C)[C@H]3[C@@](O)(C(=O)OC)[C@H](OC(C)=O)[C@]5(CC)C=CCN6CC[C@]43[C@@H]65)C2)C1 [Vinblastine] (1000 nM)
normalised response [18]: 50.3% | normalised response [19]: 22.6% | normalised response [20]: 37.8% | normalised response [21]: 17.6% | normalised response [22]: 46.8% | normalised response [23]: 33.9% | normalised response [24]: 55.3%

CS(=O)(=O)c1ccc(C(=O)Nc2ccc(Cl)c(-c3ccccn3)c2)c(Cl)c1 [Vismodegib] (10000 nM)
normalised response [18]: 103% | normalised response [19]: 96.8% | normalised response [20]: 97.8% | normalised response [21]: 87.3% | normalised response [22]: 90.4% | normalised response [23]: 97.2% | normalised response [24]: 86.5%
